# Assay results from patent US9498479B2, “Dihydropyrimidine compounds and their application in pharmaceuticals” (SUNSHINE LAKE PHARMA CO., LTD., priority 2013, dated 2016).
# Tested on: HBV
# Test: In-vitro anti-HBV activity in stable HBV-producing cell line (HepG2.2.15), HBV DNA in culture fluid by qPCR
# Assay type: cell-based
# Settings: Hepatitis B virus, 168 h; HepG2.2.15 cells, HBV DNA in culture media on day 7, qPCR
# Procedure: Specific procedures are as follows:
# HepG2.2.15 cells were seeded into each well of 96-well plates, 40,000 cells per well. Cells were treated with cell culture medium containing compounds with different concentrations 24 hours after cell seeding. The final concentration of each compound was 16.4 μM in each well and each compound was diluted to desired concentration using 3-fold gradient dilution protocol, 9 diluted points in duplicate. The culture mediums containing the compounds were refreshed on day 4 post cell seeding. Culture media were collected from the HepG2.2.15 plates on day 7 post cell seeding followed by HBV DNA extraction.
# HBV DNA extraction: The HBV DNA extraction was performed using QIAamp 96 DNA Blood Kit (QIAGEN 51161).
# PCR for quantification: PCR mix was prepared according to PCR system. PCR mix was dispensed to 96-well optical reaction plates (special for quantification). The standard diluted proportionally was added. Then the sample was added; The plates were sealed with optical adhesive film; PCR system was performed according to programs.
# Percentage of HBV inhibition of DNA replication by compound was calculated using the following equation: % Inh.=[1-HBV DNA quantity of sample/HBV DNA quantity of DMSO control]*100.
# Calculating EC50 value of compounds to HBV replication: the EC50 values were calculated based on “four-parameter logistic equation” and using GraphPad Prism 5 analysis software.
row,SMILES,EC50 [nM]
1,"CCOC(=O)C1=C(CN2CC(F)(F)C[C@@H]2CCC(=O)O)NC(c2nccs2)=N[C@H]1c1ccc(Cl)cc1Cl [Example 21, 3-((S)-1-(((R)-6-(2,4-dichlorophenyl)-5-(ethoxycarbonyl)-2-(thiazol-2-yl)-3,6-dihydropyrimidin-4-yl)methyl)-4,4-difluoropyrrolidin-2-yl)propanoic acid]",9
2,"COC(=O)C1=C(CN2CC(F)(F)C[C@@H]2CCC(=O)O)NC(c2nccs2)=N[C@H]1c1ccc(Cl)cc1Cl [Example 22, 3-((S)-1-(((R)-6-(2,4-dichlorophenyl)-5-(methoxycarbonyl)-2-(thiazol-2-yl)-3,6-dihydropyrimidin-4-yl)methyl)-4,4-difluoropyrrolidin-2-yl)propanoic acid]",11
